Source: ChEMBL document CHEMBL1165899, “Synthesis and antitumor evaluation of novel cyclic arylsulfonylureas: ADME-T and pharmacophore prediction” (2010)

Columns and labels:
Type in all cases: functional
BT-549 = experiment: Growth inhibition of human BT549 cells at 10 uM after 48 hrs by sulforhodamine B assay relative to control; conditions: BT-549, 48 h, read-out: GI
A549 = experiment: Growth inhibition of human A549 cells at 10 uM after 48 hrs by sulforhodamine B assay relative to control; conditions: A549, 48 h, read-out: GI
NCI-H226 = experiment: Growth inhibition of human NCI-H226 cells at 10 uM after 48 hrs by sulforhodamine B assay relative to control; conditions: NCI-H226, 48 h, read-out: GI
NCI-H522 = experiment: Growth inhibition of human NCI-H522 cells at 10 uM after 48 hrs by sulforhodamine B assay relative to control; conditions: NCI-H522, 48 h, read-out: GI
A498 = experiment: Growth inhibition of human A498 cells at 10 uM after 48 hrs by sulforhodamine B assay relative to control; conditions: A498, 48 h, read-out: GI
MDA-MB-231 = experiment: Growth inhibition of human MDA-MB-231 cells at 10 uM after 48 hrs by sulforhodamine B assay relative to control; conditions: MDA-MB-231, 48 h, read-out: GI
NCI/ADR-RES = experiment: Growth inhibition of human NCI/ADR-RES cells at 10 uM after 48 hrs by sulforhodamine B assay relative to control; conditions: read-out: GI
IGROV-1 = experiment: Growth inhibition of human IGROV1 cells at 10 uM after 48 hrs by sulforhodamine B assay relative to control; conditions: IGROV-1, 48 h, read-out: GI
OVCAR-5 = experiment: Growth inhibition of human OVCAR5 cells at 10 uM after 48 hrs by sulforhodamine B assay relative to control; conditions: OVCAR-5, 48 h, read-out: GI
HT-29 = experiment: Growth inhibition of human HT-29 cells at 10 uM after 48 hrs by sulforhodamine B assay relative to control; conditions: HT-29, 48 h, read-out: GI
MOLT-4 = experiment: Growth inhibition of human MOLT4 cells at 10 uM after 48 hrs by sulforhodamine B assay relative to control; conditions: MOLT-4, 48 h, read-out: GI
NCI-H23 = experiment: Growth inhibition of human NCI-H23 cells at 10 uM after 48 hrs by sulforhodamine B assay relative to control; conditions: NCI-H23, 48 h, read-out: GI
COLO 205 = experiment: Growth inhibition of human COLO205 cells at 10 uM after 48 hrs by sulforhodamine B assay relative to control; conditions: COLO 205, 48 h, read-out: GI
SR = experiment: Growth inhibition of human SR cells at 10 uM after 48 hrs by sulforhodamine B assay relative to control; conditions: read-out: GI
HOP-92 = experiment: Growth inhibition of human HOP92 cells at 10 uM after 48 hrs by sulforhodamine B assay relative to control; conditions: HOP-92, 48 h, read-out: GI
MDA-MB-435 = experiment: Growth inhibition of human MDA-MB-435 cells at 10 uM after 48 hrs by sulforhodamine B assay relative to control; conditions: MDA-MB-435, 48 h, read-out: GI
M14 = experiment: Growth inhibition of human M14 cells at 10 uM after 48 hrs by sulforhodamine B assay relative to control; conditions: M14, 48 h, read-out: GI
SK-OV-3 = experiment: Growth inhibition of human SKOV3 cells at 10 uM after 48 hrs by sulforhodamine B assay relative to control; conditions: SK-OV-3, 48 h, read-out: GI
DU-145 = experiment: Growth inhibition of human DU145 cells at 10 uM after 48 hrs by sulforhodamine B assay relative to control; conditions: DU-145, 48 h, read-out: GI
KM12 = experiment: Growth inhibition of human KM12 cells at 10 uM after 48 hrs by sulforhodamine B assay relative to control; conditions: KM12, 48 h, read-out: GI
[1] = Growth inhibition of human Hs 578T cells at 10 uM after 48 hrs by sulforhodamine B assay relative to control; conditions: read-out: GI
Malme-3M = experiment: Growth inhibition of human MALME-3M cells at 10 uM after 48 hrs by sulforhodamine B assay relative to control; conditions: read-out: GI
SF-539 = experiment: Growth inhibition of human SF539 cells at 10 uM after 48 hrs by sulforhodamine B assay relative to control; conditions: SF-539, 48 h, read-out: GI
OVCAR-8 = experiment: Growth inhibition of human OVCAR8 cells at 10 uM after 48 hrs by sulforhodamine B assay relative to control; conditions: OVCAR-8, 48 h, read-out: GI
ACHN = experiment: Growth inhibition of human ACHN cells at 10 uM after 48 hrs by sulforhodamine B assay relative to control; conditions: read-out: GI

## CN(C)c1ccc(/C=C2\NC(=O)N(S(=O)(=O)c3ccc(Cl)cc3)C2=O)cc1
BT-549
  inhibition of growth at 10 µM: 4.63%
A549
  inhibition of growth at 10 µM: -8.84%
NCI-H226
  inhibition of growth at 10 µM: -9.94%
NCI-H522
  inhibition of growth at 10 µM: 9.78%
A498
  inhibition of growth at 10 µM: -8.94%
MDA-MB-231
  inhibition of growth at 10 µM: -2.18%
NCI/ADR-RES
  inhibition of growth at 10 µM: -6.33%
IGROV-1
  inhibition of growth at 10 µM: 97.9%
OVCAR-5
  inhibition of growth at 10 µM: -4.44%
HT-29
  inhibition of growth at 10 µM: -2.64%
MOLT-4
  inhibition of growth at 10 µM: 11.5%
NCI-H23
  inhibition of growth at 10 µM: -1.8%
COLO 205
  inhibition of growth at 10 µM: -14.7%
SR
  inhibition of growth at 10 µM: 34.7%
HOP-92
  inhibition of growth at 10 µM: 11.2%
MDA-MB-435
  inhibition of growth at 10 µM: -4.89%
M14
  inhibition of growth at 10 µM: 200%
SK-OV-3
  inhibition of growth at 10 µM: -8.45%
DU-145
  inhibition of growth at 10 µM: -4.25%
KM12
  inhibition of growth at 10 µM: -11.6%
[1]
  inhibition of growth at 10 µM: 14.1%
Malme-3M
  inhibition of growth at 10 µM: -49.7%
SF-539
  inhibition of growth at 10 µM: -0.9%
OVCAR-8
  inhibition of growth at 10 µM: -8.63%
ACHN
  inhibition of growth at 10 µM: -5.38%
